Among the data in patent US20120225123A1, “Use of Synergistic Combinations of an Avermectin and an Antineoplastic Compounds for the Treatment of Hematological Malignancies” (UNIVERSITY HEALTH NETWORK, priority 2009, published 2012) are plasma membrane potential and LD50 values, retold here.

Data set [1] deals with U937 and TEX leukemia cells as well as primary AML cells. The data set is described as follows: Plasma membrane potential, DiBAC4(3) staining, sensitive cells. It is filed as cell-based, human. The conditions noted are these: after ivermectin treatment. The protocol: Plasma membrane potential was measured as previously described.^18 Briefly, cells treated with IVM or buffer control in RPM1, chloride replete medium (140 mM sodium chloride, 5 mM potassium chloride, 1 mM magnesium sulfate, 1.8 mM calcium acetate, 10 mM glucose, 10 mM HEPES and 0.1% (wt/v) BSA), or chloride free media where equimolar gluconate salts of sodium and potassium replaced the sodium chloride in the chloride replete medium. After incubation, cells were stained with DiBAC4(3) (final concentration 30 nM) and fluorescence determined by flow cytometry (BD FACS Canto, Becton Dickinson, San Jose, Calif.) (excitation=488 nm, emission=516 nm) Analysis was conducted using FACSDiva Software (BD Biosciences). Calibration curves were prepared using phosphate buffers with varying potassium ion concentrations as previously described.^18
In nematodes, increases in intracellular chloride after IVM treatment cause membrane hyperpolarization. Therefore, the effects of IVM on plasma and mitochondrial membrane polarization was evaluated in leukemia cells. […] At increasing times after incubation, plasma membrane potential was measured by staining cells with DiBAC4(3) and flow cytometric analysis.

Data set [2] relates to dogs. The following applies: oral; cited from earlier work.

By LD50 is commonly meant the dose at which mortality reaches 50%. On to ivermectin, for which the plasma membrane potential result in data set [1] was “demonstrated plasma membrane hyperpolarization”. Also, in data set [2], the median lethal dose (LD50) is reported as around 80 mg/kg.
